Literature values in patent US20160113981A1, “TOPICAL COMPOSITION” (priority 2014, published 2016).

Columns and labels:
[1] = equimolar dose of indomethacin
[2] = after topical application of lavender oil

SMILES	anti-inflammatory effect compared with indomethacin [1]	time of peak in the blood [2] [min]
CC1=CC[C@@]2(C)[C@H]([C@@H]1C)[C@H]1CC[C@@H]3[C@@]4(C)CC[C@H](O)C(C)(C)[C@@H]4CC[C@@]3(C)[C@]1(C)C[C@@H]2O [faradiol]	same effects as an equimolar dose of indomethacin	–
C=CC(C)(O)CCC=C(C)C (stereo not drawn) [linalool]	–	19
C=CC(C)(CCC=C(C)C)OC(C)=O (stereo not drawn) [linalyl acetate]	–	19
